Measurements reported in patent US11261211B2, “19-NOR neuroactive steroids and methods of use thereof” (Sage Therapeutics, Inc., priority 2013, dated 2022).

target: α1β2γ2 GABAA receptor (Homo sapiens (Human), UniProt P14867+P47870); assay: Patch clamp electrophysiology of recombinant α1β2γ2 GABAA receptors in LTK cells; assay type: cell-based; conditions: 10 μM compound, Qpatch, Ltk cells, GABA EC20 2 μM
Description: Cellular electrophysiology is used to measure the pharmacological properties of our GABAA receptor modulators in heterologous cell systems. Each compound is tested for its ability to affect GABA mediated currents at a submaximal agonist dose (GABA EC20=2 μM). LTK cells are stably transfected with the α1β2γ2 subunits of the GABA receptor and CHO cells are transiently transfected with the α4β3δ subunits via the Lipofecatamine method. Cells were passaged at a confluence of about 50-80% and then seeded onto 35 mm sterile culture dishes containing 2 ml culture complete medium without antibiotics or antimycotics. Confluent clusters of cells are electrically coupled (Pritchett et al., 1988). Because responses in distant cells are not adequately voltage clamped and because of uncertainties about the extent of coupling (Verdoorn et al., 1990), cells were cultivated at a density that enables the recording of single cells (without visible connections to other cells).
Whole cell currents were measured with HEKA EPC-10 amplifiers using PatchMaster software or by using the high throughput QPatch platform (Sophion). Bath solution for all experiments contained (in mM): NaCl 137 mM, KCl 4 mM, CaCl2 1.8 mM, MgCl2 1 mM, HEPES 10 mM, D-Glucose 10 mM, pH (NaOH) 7.4. In some cases 0.005% cremophor was also added. Intracellular (pipette) solution contained: KCl 130 mM, MgCl2 1 mM, Mg-ATP 5 mM, HEPES 10 mM, EGTA 5 mM, pH 7.2. During experiments, cells and solutions were maintained at room temperature (19° C.-30° C.). For manual patch clamp recordings, cell culture dishes were placed on the dish holder of the microscope and continuously perfused (1 ml/min) with bath solution. After formation of a Gigaohm seal between the patch electrodes and the cell (pipette resistance range: 2.5 MΩ-6.0 MΩ; seal resistance range: >1 GΩ) the cell membrane across the pipette tip was ruptured to assure electrical access to the cell interior (whole-cell patch-configuration). For experiments using the QPatch system, cells were transferred as suspension to the QPatch system in the bath solution and automated whole cell recordings were performed.
Cells were voltage clamped at a holding potential of −80 mV. For the analysis of test articles, GABA receptors were stimulated by 2 μM GABA after sequential pre-incubation of increasing concentrations of the test article. Pre-incubation duration was 30 s and the duration of the GABA stimulus was 2 s. Test articles were dissolved in DMSO to form stock solutions (10 mM). Test articles were diluted to 0.01, 0.1, 1, and 10 μM in bath solution. All concentrations of test articles were tested on each cell. The relative percentage potentiation was defined as the peak amplitude in response to GABA EC20 in the presence of the test article divided by the peak amplitude in response to GABA EC20 alone, multiplied by 100.

With `C[C@@]1(O)CC[C@H]2[C@@H](CC[C@@H]3[C@@H]2CC[C@]2(C)[C@@H](C(=O)Cn4ncc5ncccc54)CC[C@@H]32)C1` [SB-5] the “α1β2γ2 GABA Qpatch in Ltk (Efficacy at 10 μm)” value was “B (“B” indicates an efficacy value of >100-500%)”.
With `C[C@@]1(O)CC[C@H]2[C@@H](CC[C@@H]3[C@@H]2CC[C@]2(C)[C@@H](C(=O)Cn4ncc5ccncc54)CC[C@@H]32)C1` [SB-10] the “α1β2γ2 GABA Qpatch in Ltk (Efficacy at 10 μm)” value was “B (“B” indicates an efficacy value of >100-500%)”.

same assay, conditions: LTK, 10 μM compound, Qpatch, Ltk cells, GABA EC20 2 μM; read-out: α1β2γ2 GABA Qpatch in Ltk (Efficacy at 10 μm)

`C[C@@]1(O)CC[C@H]2[C@H](CC[C@@H]3[C@@H]2CC[C@]2(C)[C@@H](C(=O)Cn4nnc5c(Cl)cccc54)CC[C@@H]32)C1` [SA-76] and `C[C@@]1(O)CC[C@H]2[C@H](CC[C@@H]3[C@@H]2CC[C@]2(C)[C@@H](C(=O)Cn4nnc5cccc(Cl)c54)CC[C@@H]32)C1` [SA-77] cannot be ordered by activity at 10 µM: over 500% for the first, over 500% for the second.

Compared with `C[C@]12CC[C@H]3[C@@H](CC[C@@H]4C[C@@](O)(CF)CC[C@@H]43)[C@@H]1CC[C@@H]2C(=O)Cn1nnc2ccccc21` [SA-79], `C[C@]12CC[C@H]3[C@@H](CC[C@H]4C[C@@](O)(CF)CC[C@@H]43)[C@@H]1CC[C@@H]2C(=O)Cn1nnc2ccccc21` [SB-12] is lower in activity at 10 µM: over 500% for the first, 100 to 500% for the second.

Compared with `C[C@]12CC[C@H]3[C@@H](CC[C@@H]4C[C@@](O)(CF)CC[C@@H]43)[C@@H]1CC[C@@H]2C(=O)Cn1ncc2ncccc21` [SA-84], `C[C@]12CC[C@H]3[C@@H](CC[C@H]4C[C@@](O)(CF)CC[C@@H]43)[C@@H]1CC[C@@H]2C(=O)Cn1ncc2ncccc21` [SB-17] is lower in activity at 10 µM: 100 to 500% for the first, 10 to 100% for the second.

`C[C@]12CC[C@H]3[C@@H](CC[C@@H]4C[C@@](O)(CF)CC[C@@H]43)[C@@H]1CC[C@@H]2C(=O)Cn1cc2ccncc2n1` [SA-85] and `C[C@]12CC[C@H]3[C@@H](CC[C@H]4C[C@@](O)(CF)CC[C@@H]43)[C@@H]1CC[C@@H]2C(=O)Cn1cc2ccncc2n1` [SB-18] cannot be ordered by activity at 10 µM: over 500% for the first, over 500% for the second.

`C[C@]12CC[C@H]3[C@@H](CC[C@@H]4C[C@@](O)(CF)CC[C@@H]43)[C@@H]1CC[C@@H]2C(=O)Cn1ncc2ccncc21` [SA-86] and `C[C@]12CC[C@H]3[C@@H](CC[C@H]4C[C@@](O)(CF)CC[C@@H]43)[C@@H]1CC[C@@H]2C(=O)Cn1ncc2ccncc21` [SB-19] fall in the same range of activity at 10 µM: 100 to 500% for the first, 100 to 500% for the second.

`C[C@]12CC[C@H]3[C@@H](CC[C@@H]4C[C@@](O)(CF)CC[C@@H]43)[C@@H]1CC[C@@H]2C(=O)Cn1nc2ccc(F)cc2n1` [SA-89] and `COC[C@@]1(O)CC[C@H]2[C@H](CC[C@@H]3[C@@H]2CC[C@]2(C)[C@@H](C(=O)Cn4nc5ccc(F)cc5n4)CC[C@@H]32)C1` [SA-122] fall in the same range of activity at 10 µM: 100 to 500% for the first, 100 to 500% for the second.

First: C[C@]12CC[C@H]3[C@@H](CC[C@@H]4C[C@@](O)(C(F)F)CC[C@@H]43)[C@@H]1CC[C@@H]2C(=O)Cn1nnc2ccccc21 [SA-90]
Second: C[C@@]1(O)CC[C@H]2[C@@H](CC[C@@H]3[C@@H]2CC[C@]2(C)[C@@H](C(=O)Cn4nnc5ccccc54)CC[C@@H]32)C1 [SB-1]
The activity at 10 µM of the first is lower: 10 to 100% for the first, 100 to 500% for the second.

First: C[C@]12CC[C@H]3[C@@H](CC[C@@H]4C[C@@](O)(C(F)F)CC[C@@H]43)[C@@H]1CC[C@@H]2C(=O)Cn1nc2ccccc2n1 [SA-92]
Second: C[C@@]1(O)CC[C@H]2[C@@H](CC[C@@H]3[C@@H]2CC[C@]2(C)[C@@H](C(=O)Cn4nc5ccccc5n4)CC[C@@H]32)C1 [SB-2]
The activity at 10 µM of the first is lower: 100 to 500% for the first, over 500% for the second.

First: C[C@]12CC[C@H]3[C@@H](CC[C@@H]4C[C@@](O)(C(F)F)CC[C@@H]43)[C@@H]1CC[C@@H]2C(=O)Cn1cc2ncccc2n1 [SA-93]
Second: C[C@]12CC[C@H]3[C@@H](CC[C@H]4C[C@@](O)(CF)CC[C@@H]43)[C@@H]1CC[C@@H]2C(=O)Cn1cc2ncccc2n1 [SB-16]
The activity at 10 µM of the first is higher: over 500% for the first, 100 to 500% for the second.

Compared with `C[C@]12CC[C@H]3[C@@H](CC[C@@H]4C[C@@](O)(C(F)F)CC[C@@H]43)[C@@H]1CC[C@@H]2C(=O)Cn1ncc2ncccc21` [SA-94], `CC[C@@]1(O)CC[C@H]2[C@H](CC[C@@H]3[C@@H]2CC[C@]2(C)[C@@H](C(=O)Cn4ncc5ncccc54)CC[C@@H]32)C1` [SA-111] is higher in activity at 10 µM: 100 to 500% for the first, over 500% for the second.

`C[C@]12CC[C@H]3[C@@H](CC[C@@H]4C[C@@](O)(C(F)F)CC[C@@H]43)[C@@H]1CC[C@@H]2C(=O)Cn1nnc2cnccc21` [SA-96] and `C[C@@]1(O)CC[C@H]2[C@@H](CC[C@@H]3[C@@H]2CC[C@]2(C)[C@@H](C(=O)Cn4nnc5cnccc54)CC[C@@H]32)C1` [SB-7] fall in the same range of activity at 10 µM: 100 to 500% for the first, 100 to 500% for the second.

Compared with `C[C@]12CC[C@H]3[C@@H](CC[C@@H]4C[C@@](O)(C(F)F)CC[C@@H]43)[C@@H]1CC[C@@H]2C(=O)Cn1nc2ccncc2n1` [SA-97], `C[C@]12CC[C@H]3[C@@H](CC[C@@H]4C[C@@](O)(C(F)F)CC[C@@H]43)[C@@H]1CC[C@@H]2C(=O)Cn1nc2ccc(F)cc2n1` [SA-104] is lower in activity at 10 µM: over 500% for the first, 100 to 500% for the second.

`C[C@]12CC[C@H]3[C@@H](CC[C@@H]4C[C@@](O)(C(F)F)CC[C@@H]43)[C@@H]1CC[C@@H]2C(=O)Cn1cc2ccncc2n1` [SA-99] and `COC[C@@]1(O)CC[C@H]2[C@H](CC[C@@H]3[C@@H]2CC[C@]2(C)[C@@H](C(=O)Cn4cc5ccncc5n4)CC[C@@H]32)C1` [SA-118] cannot be ordered by activity at 10 µM: over 500% for the first, over 500% for the second.

`Cn1c(CC(=O)[C@H]2CC[C@H]3[C@@H]4CC[C@@H]5C[C@](C)(O)CC[C@@H]5[C@H]4CC[C@]23C)nc2ccccc21` [SA-105] and `COC[C@@]1(O)CC[C@H]2[C@H](CC[C@@H]3[C@@H]2CC[C@]2(C)[C@@H](C(=O)Cn4nnc5ccccc54)CC[C@@H]32)C1` [SA-115] cannot be ordered by activity at 10 µM: over 500% for the first, over 500% for the second.

First: CC[C@@]1(O)CC[C@H]2[C@H](CC[C@@H]3[C@@H]2CC[C@]2(C)[C@@H](C(=O)Cn4cc5ncccc5n4)CC[C@@H]32)C1 [SA-110]
Second: CC[C@@]1(O)CC[C@H]2[C@@H](CC[C@@H]3[C@@H]2CC[C@]2(C)[C@@H](C(=O)Cn4cc5ncccc5n4)CC[C@@H]32)C1 [SB-29]
The activity at 10 µM of the first is higher: over 500% for the first, 100 to 500% for the second.

`CC[C@@]1(O)CC[C@H]2[C@H](CC[C@@H]3[C@@H]2CC[C@]2(C)[C@@H](C(=O)Cn4nnc5cnccc54)CC[C@@H]32)C1` [SA-112] and `CC[C@@]1(O)CC[C@H]2[C@H](CC[C@@H]3[C@@H]2CC[C@]2(C)[C@@H](C(=O)Cn4nnc5ccncc54)CC[C@@H]32)C1` [SA-113] fall in the same range of activity at 10 µM: 100 to 500% for the first, 100 to 500% for the second.

First: CC[C@@]1(O)CC[C@H]2[C@H](CC[C@@H]3[C@@H]2CC[C@]2(C)[C@@H](C(=O)Cn4nc5ccncc5n4)CC[C@@H]32)C1 [SA-114]
Second: C[C@]12CC[C@H]3[C@@H](CC[C@H]4C[C@@](O)(CF)CC[C@@H]43)[C@@H]1CC[C@@H]2C(=O)Cn1nc2ccccc2n1 [SB-13]
The activity at 10 µM of the first is higher: over 500% for the first, 100 to 500% for the second.

`COC[C@@]1(O)CC[C@H]2[C@H](CC[C@@H]3[C@@H]2CC[C@]2(C)[C@@H](C(=O)Cn4cc5ncccc5n4)CC[C@@H]32)C1` [SA-116] and `COC[C@@]1(O)CC[C@H]2[C@H](CC[C@@H]3[C@@H]2CC[C@]2(C)[C@@H](C(=O)Cn4ncc5ncccc54)CC[C@@H]32)C1` [SA-117] cannot be ordered by activity at 10 µM: over 500% for the first, over 500% for the second.

First: COC[C@@]1(O)CC[C@H]2[C@H](CC[C@@H]3[C@@H]2CC[C@]2(C)[C@@H](C(=O)Cn4ncc5ccncc54)CC[C@@H]32)C1 [SA-119]
Second: COC[C@@]1(O)CC[C@H]2[C@H](CC[C@@H]3[C@@H]2CC[C@]2(C)[C@@H](C(=O)Cn4nnc5ccncc54)CC[C@@H]32)C1 [SA-124]
The activity at 10 µM of the first is higher: over 500% for the first, 100 to 500% for the second.

First: COC[C@@]1(O)CC[C@H]2[C@H](CC[C@@H]3[C@@H]2CC[C@]2(C)[C@@H](C(=O)Cn4nnc5cnccc54)CC[C@@H]32)C1 [SA-123]
Second: C[C@]12CC[C@H]3[C@@H](CC[C@H]4C[C@@](O)(CF)CC[C@@H]43)[C@@H]1CC[C@@H]2C(=O)Cn1nnc2cnccc21 [SB-14]
The activity at 10 µM of the first is higher: 100 to 500% for the first, 10 to 100% for the second.

Compared with `C[C@@]1(O)CC[C@H]2[C@@H](CC[C@@H]3[C@@H]2CC[C@]2(C)[C@@H](C(=O)Cn4nc5ccc(F)cc5n4)CC[C@@H]32)C1` [SB-11], `C[C@]12CC[C@H]3[C@@H](CC[C@H]4C[C@@](O)(CF)CC[C@@H]43)[C@@H]1CC[C@@H]2C(=O)Cn1nnc2ccncc21` [SB-26] is lower in activity at 10 µM: 100 to 500% for the first, 10 to 100% for the second.

In the case of `CC[C@@]1(O)CC[C@H]2[C@@H](CC[C@@H]3[C@@H]2CC[C@]2(C)[C@@H](C(=O)Cn4ncc5ncccc54)CC[C@@H]32)C1` [SB-30], the activity at 10 µM is reported as 100 to 500%.
